Measurements as given in patent publication US20250312352A1, “GLP-1R MODULATING COMPOUNDS” (Gilead Sciences, Inc., priority 2021, published 2025).

biological target: T1, GLP-1R (Homo sapiens, UniProt P43220); test: GLP-1R activation cAMP assay (Assay 1 or Assay 2); type: cell-based; conditions: cAMP increase in CHO cells stably expressing GLP-1R; compounds run on one of the two cAMP assays
T1 construct: host or cells: CHO cells
Outline: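 EC50 values come from a sigmoidal fit of HTRF-detected cAMP rise versus log agonist concentration. GLP-1R-expressing CHO cells, equilibrated 1 h at 37 °C in HBSS with HEPES and BSA, received a 10-point compound dose series for 30 min before detection.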

T1 sequence (P43220 24-463): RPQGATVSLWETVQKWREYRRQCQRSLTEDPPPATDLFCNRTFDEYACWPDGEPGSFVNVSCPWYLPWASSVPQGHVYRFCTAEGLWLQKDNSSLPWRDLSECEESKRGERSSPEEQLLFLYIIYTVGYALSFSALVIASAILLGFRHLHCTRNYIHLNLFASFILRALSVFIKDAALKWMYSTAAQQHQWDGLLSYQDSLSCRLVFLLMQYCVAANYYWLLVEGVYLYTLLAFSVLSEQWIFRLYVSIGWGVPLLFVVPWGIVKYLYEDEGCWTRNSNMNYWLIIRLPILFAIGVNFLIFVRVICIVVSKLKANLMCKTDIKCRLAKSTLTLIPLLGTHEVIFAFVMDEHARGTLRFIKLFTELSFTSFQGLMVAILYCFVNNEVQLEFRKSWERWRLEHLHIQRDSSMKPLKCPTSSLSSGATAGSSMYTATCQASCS

EC50 | Structure (SMILES)
372 pM | COc1nnc(COc2cccc(-c3cc(F)c(Cc4nc5c(F)cc(C(=O)O)cc5n4CC4(C(F)F)CC4)cc3F)n2)s1 [Example 275, 2-(2,5-difluoro-4-(6-((5-methoxy-1,3,4-thiadiazol-2-yl)methoxy)pyridin-2-yl)benzyl)-1-((1-(difluoromethyl)cyclopropyl)methyl)-4-fluoro-1H-benzo[d]imidazole-6-carboxylic acid]
27 pM | COc1nnc(COc2nc(-c3cc(F)c(Cc4nc5c(F)cc(C(=O)O)cc5n4[C@@H]4COCC4(C)C)cc3F)ccc2F)s1 [Example 346, (S)-2-(2,5-difluoro-4-(5-fluoro-6-((5-methoxy-1,3,4-thiadiazol-2-yl)methoxy)pyridin-2-yl)benzyl)-1-(4,4-dimethyltetrahydrofuran-3-yl)-4-fluoro-1H-benzo[d]imidazole-6-carboxylic acid]
483 pM | COc1nnc(COc2nc(-c3cc(F)c(Cc4nc5ccc(C(=O)O)cc5n4[C@@H]4COCC4(C)C)cc3C)ccc2F)s1 [Example 258, (S)-1-(4,4-dimethyltetrahydrofuran-3-yl)-2-(2-fluoro-4-(5-fluoro-6-((5-methoxy-1,3,4-thiadiazol-2-yl)methoxy)pyridin-2-yl)-5-methylbenzyl)-1H-benzo[d]imidazole-6-carboxylic acid]
301 pM | O=C(O)c1cc(F)c2nc(Cc3cc(F)c(-c4cccc(OCc5ncc(C#CC6(C(F)F)CC6)cc5Cl)n4)cc3F)n(C[C@@H]3CCO3)c2c1 [Example 381, (S)-2-(4-(6-((3-chloro-5-((1-(difluoromethyl)cyclopropyl)ethynyl)pyridin-2-yl)methoxy)pyridin-2-yl)-2,5-difluorobenzyl)-4-fluoro-1-(oxetan-2-ylmethyl)-1H-benzo[d]imidazole-6-carboxylic acid]
695 pM | C[C@H]1COC[C@H]1n1c(Cc2cc(F)c(-c3ccc(F)c(OCc4ncc(C(F)(F)F)s4)n3)cc2F)nc2ccc(C(=O)O)cc21 [Example 409, 2-(2,5-difluoro-4-(5-fluoro-6-((5-(trifluoromethyl)thiazol-2-yl)methoxy)pyridin-2-yl)benzyl)-1-((3S,4R)-4-methyltetrahydrofuran-3-yl)-1H-benzo[d]imidazole-6-carboxylic acid]
80 pM | O=C(O)c1ccc2nc(Cc3cc(F)c(-c4cccc(OCc5ccc(-c6cn(C7CC7)nn6)cc5F)n4)cc3F)n(C[C@@H]3CCO3)c2c1 [Example 214, (S)-2-(4-(6-((4-(1-cyclopropyl-1H-1,2,3-triazol-4-yl)-2-fluorobenzyl)oxy)pyridin-2-yl)-2,5-difluorobenzyl)-1-(oxetan-2-ylmethyl)-1H-benzo[d]imidazole-6-carboxylic acid]
354 pM | CC(C)(O)C#Cc1cnc(COc2cccc(-c3cc(F)c(Cc4nc5ccc(C(=O)O)cc5n4C[C@@H]4CCO4)cc3F)n2)s1 [Example 334, (S)-2-(2,5-difluoro-4-(6-((5-(3-hydroxy-3-methylbut-1-yn-1-yl)thiazol-2-yl)methoxy)pyridin-2-yl)benzyl)-1-(oxetan-2-ylmethyl)-1H-benzo[d]imidazole-6-carboxylic acid]
100 pM | Cn1cc(C#Cc2ccc(COc3cccc(-c4cc(F)c(Cc5nc6c(F)cc(C(=O)O)cc6n5C[C@@H]5CCO5)cc4F)n3)c(F)c2)cn1 [Example 151, (S)-2-(2,5-difluoro-4-(6-((2-fluoro-4-((1-methyl-1H-pyrazol-4-yl)ethynyl)benzyl)oxy)pyridin-2-yl)benzyl)-4-fluoro-1-(oxetan-2-ylmethyl)-1H-benzo[d]imidazole-6-carboxylic acid]
66 pM | CCOc1nnc(COc2nc(-c3cc(F)c(Cc4nc5c(F)cc(C(=O)O)cc5n4[C@@H]4COCC4(C)C)cc3C)ccc2F)s1 [Example 422, (S)-1-(4,4-dimethyltetrahydrofuran-3-yl)-2-(4-(6-((5-ethoxy-1,3,4-thiadiazol-2-yl)methoxy)-5-fluoropyridin-2-yl)-2-fluoro-5-methylbenzyl)-4-fluoro-1H-benzo[d]imidazole-6-carboxylic acid]
140 pM | Cn1cc(C#Cc2cnc(COc3cccc(-c4cc(F)c(Cc5nc6ccc(C(=O)O)cc6n5C[C@@H]5CCO5)cc4F)n3)c(F)c2)cn1 [Example 143, (S)-2-(2,5-difluoro-4-(6-((3-fluoro-5-((1-methyl-1H-pyrazol-4-yl)ethynyl)pyridin-2-yl)methoxy)pyridin-2-yl)benzyl)-1-(oxetan-2-ylmethyl)-1H-benzo[d]imidazole-6-carboxylic acid]
130 pM | Cn1cc(C#Cc2ccc(COc3cccc(-c4cc(F)c(Cc5nc6ccc(C(=O)O)cc6n5C[C@@H]5CCO5)cc4F)n3)s2)cn1 [Example 112, (S)-2-(2,5-difluoro-4-(6-((5-((1-methyl-1H-pyrazol-4-yl)ethynyl)thiophen-2-yl)methoxy)pyridin-2-yl)benzyl)-1-(oxetan-2-ylmethyl)-1H-benzo[d]imidazole-6-carboxylic acid]
84 pM | CC(F)(F)c1cnc(COc2nc(-c3cc(F)c(Cc4nc5c(F)cc(C(=O)O)cc5n4C[C@@H]4CCO4)cc3F)ccc2F)s1 [Example 309, (S)-2-(4-(6-((5-(1,1-difluoroethyl)thiazol-2-yl)methoxy)-5-fluoropyridin-2-yl)-2,5-difluorobenzyl)-4-fluoro-1-(oxetan-2-ylmethyl)-1H-benzo[d]imidazole-6-carboxylic acid]
8290 pM | N#Cc1nc(COc2cccc(-c3cc(F)c(Cc4nc5ccc(C(=O)O)cc5n4C[C@@H]4CCO4)cc3F)n2)cs1 [Example 170, (S)-2-(4-(6-((2-cyanothiazol-4-yl)methoxy)pyridin-2-yl)-2,5-difluorobenzyl)-1-(oxetan-2-ylmethyl)-1H-benzo[d]imidazole-6-carboxylic acid]
261 pM | O=C(O)c1ccc2nc(Cc3cc(F)c(-c4cccc(OCc5ncc(C#CC6CC(F)(F)C6)s5)n4)cc3F)n(C[C@@H]3CCO3)c2c1 [Example 336, (S)-2-(4-(6-((5-((3,3-difluorocyclobutyl)ethynyl)thiazol-2-yl)methoxy)pyridin-2-yl)-2,5-difluorobenzyl)-1-(oxetan-2-ylmethyl)-1H-benzo[d]imidazole-6-carboxylic acid]
535 pM | CC(F)(F)c1cnc(COc2cccc(-c3cc(F)c(Cc4nc5ccc(C(=O)O)cc5n4[C@@H]4COCC4(C)C)cc3F)n2)s1 [Example 425, (S)-2-(4-(6-((5-(1,1-difluoroethyl)thiazol-2-yl)methoxy)pyridin-2-yl)-2,5-difluorobenzyl)-1-(4,4-dimethyltetrahydrofuran-3-yl)-1H-benzo[d]imidazole-6-carboxylic acid]
250 pM | O=C(O)c1ccc2nc(Cc3cc(F)c(-c4cccc(OCc5cnc(C(=O)NC6COC6)cc5F)n4)cc3F)n(C[C@@H]3CCO3)c2c1 [Example 247, (S)-2-(2,5-difluoro-4-(6-((4-fluoro-6-(oxetan-3-ylcarbamoyl)pyridin-3-yl)methoxy)pyridin-2-yl)benzyl)-1-(oxetan-2-ylmethyl)-1H-benzo[d]imidazole-6-carboxylic acid]
4230 pM | CCn1cc(Cl)c(COc2cccc(-c3cc(F)c(Cc4nc5ccc(C(=O)O)cc5n4C[C@@H]4CCO4)cc3F)n2)n1 [Example 76, (S)-2-(4-(6-((4-chloro-1-ethyl-1H-pyrazol-3-yl)methoxy)pyridin-2-yl)-2,5-difluorobenzyl)-1-(oxetan-2-ylmethyl)-1H-benzo[d]imidazole-6-carboxylic acid]
7190 pM | O=C(O)c1ccc2nc(Cc3cc(F)c(-c4cccc(OCc5ncc(OCC(F)F)s5)n4)cc3F)n(C[C@@H]3CCO3)c2c1 [Example 56, (S)-2-(4-(6-((5-(2,2-difluoroethoxy)thiazol-2-yl)methoxy)pyridin-2-yl)-2,5-difluorobenzyl)-1-(oxetan-2-ylmethyl)-1H-benzo[d]imidazole-6-carboxylic acid]
497 pM | CCOc1nnc(COc2nc(-c3ccc(Cc4nc5ccc(C(=O)O)cc5n4[C@@H]4COCC4(C)C)c(F)c3)ccc2F)s1 [Example 397, (S)-1-(4,4-dimethyltetrahydrofuran-3-yl)-2-(4-(6-((5-ethoxy-1,3,4-thiadiazol-2-yl)methoxy)-5-fluoropyridin-2-yl)-2-fluorobenzyl)-1H-benzo[d]imidazole-6-carboxylic acid]
36100 pM | COCCn1c(Cc2cc(F)c(-c3cccc(OCc4ccc(C(=O)NC5CC5)cc4)n3)cc2F)nc2ccc(C(=O)O)cc21 [Example 249, 2-[[4-[6-[[4-(cyclopropylcarbamoyl)phenyl]methoxy]-2-pyridyl]-2,5-difluoro-phenyl]methyl]-3-(2-methoxyethyl)benzimidazole-5-carboxylic acid]
209 pM | O=C(O)c1ccc2nc(Cc3cc(F)c(-c4cccc(OCc5nnc(OCC(F)(F)F)s5)n4)cc3F)n(C[C@@H]3CCO3)c2c1 [Example 350, (S)-2-(2,5-difluoro-4-(6-((5-(2,2,2-trifluoroethoxy)-1,3,4-thiadiazol-2-yl)methoxy)pyridin-2-yl)benzyl)-1-(oxetan-2-ylmethyl)-1H-benzo[d]imidazole-6-carboxylic acid]
683 pM | Cc1cc(Cc2nc3ccc(C(=O)O)cc3n2C[C@@H]2CCO2)c(Cl)cc1-c1ccc(F)c(OCc2ncc(C(F)(F)F)s2)n1 [Example 369, (S)-2-(2-chloro-4-(5-fluoro-6-((5-(trifluoromethyl)thiazol-2-yl)methoxy)pyridin-2-yl)-5-methylbenzyl)-1-(oxetan-2-ylmethyl)-1H-benzo[d]imidazole-6-carboxylic acid]

Structure (SMILES) | EC50
CC(C)(C)OC(=O)N[C@H]1C[C@@H](n2cc(-c3ccc(COc4cccc(-c5cc(F)c(Cc6nc7ccc(C(=O)O)cc7n6C[C@@H]6CCO6)cc5F)n4)c(F)c3)nn2)C1 [Example 219, 2-(4-(6-((4-(1-((1s,3s)-3-((tert-butoxycarbonyl)amino)cyclobutyl)-1H-1,2,3-triazol-4-yl)-2-fluorobenzyl)oxy)pyridin-2-yl)-2,5-difluorobenzyl)-1-(((S)-oxetan-2-yl)methyl)-1H-benzo[d]imidazole-6-carboxylic acid] | 850 pM
